Reference: patent US10538487B2, “Sulfonylureas and related compounds and use of same” (priority 2015, dated 2020)
Values joined by “and” are separate entries in the source; they are usually repeats but may differ in a detail not shown here. Equal entries are not always repeated. Where two headings read alike, the source gives them in different places.

Assay: Single dose pharmacokinetic study in mice (iv 4 mg/Kg, po 20 mg/Kg), plasma concentration post-dosing
Format: in vivo, mouse
Conditions: mouse
Protocol: This is advantageous leading to comparatively lower doses or less frequent administration. The procedure followed was: Male C57BL/6 mice were used at 7-9 weeks age with 3 animals per group. Mice were dosed with test compound using single intravenous bolus or oral gavage. Blood samples were taken via submandibular or saphenous vein for analysis of plasma concentrations of compound by LC-MS/MS at the following timepoints: IV (3 mice): 0.083, 0.25, 0.5, 1, 2, 4, 8 and 24 hours post dosing, PO (3 mice): 0.25, 0.5, 1, 2, 4, 8 and 24 hours post dosing. LC-MS/MS method for the quantitative determination of test compound in corresponding biological matrix was developed. […] The results are shown graphically in FIGS. 1A to 1C (MCC950) and FIGS. 2A to 2C (MCC7840).

[1] = IV 4 mg/Kg, individual mice M1-M3, 4 mg/kg
[2] = PO 20 mg/Kg, individual mice M4-M6, 20 mg/kg

SMILES: CC(C)(O)c1coc(S(=O)(=O)NC(=O)Nc2c3c(cc4c2CCC4)CCC3)c1 [MCC_000950_016, N-((1,2,3,5,6,7-hexahydro-s-indacen-4-yl)carbamoyl)-4-(2-hydroxypropan-2-yl)furan-2-sulfonamide, reference compound]
- AUC0-inf (male, C57BL/6, mouse, plasma, po, 20 mg/kg, PO 20 mg/Kg, mean of 3 mice, read-out: AUC0-inf, Mean PO): 126 µg·h/mL
- AUC(0-t) (male, C57BL/6, mouse, plasma, po, 20 mg/kg, PO 20 mg/Kg, mean of 3 mice, read-out: AUC0-last, Mean PO): 125 µg·h/mL
- Cmax (male, C57BL/6, mouse, plasma, po, 20 mg/kg, PO 20 mg/Kg, mean of 3 mice, read-out: Cmax, Mean PO): 35000 ng/mL
- MRT inf (male, C57BL/6, mouse, plasma, po, 20 mg/kg, PO 20 mg/Kg, mean of 3 mice, read-out: MRT0-inf, Mean PO): 3.63 h
- MRT last (male, C57BL/6, mouse, plasma, po, 20 mg/kg, PO 20 mg/Kg, mean of 3 mice, read-out: MRT0-last, Mean PO): 3.6 h
- half-life (male, C57BL/6, mouse, plasma, po, 20 mg/kg, PO 20 mg/Kg, mean of 3 mice, read-out: T1/2, Mean PO (converted)): 2.39 h
- Tmax (male, C57BL/6, mouse, plasma, po, 20 mg/kg, PO 20 mg/Kg, mean of 3 mice, read-out: Tmax, Mean PO): 0.333 h
- Plasma concentration, IV Time 5 min (IV 4 mg/Kg, 5 min post dosing, individual mice M1-M3, 4 mg/kg): 17200 ng/mL and 17700 ng/mL
- Plasma concentration, IV Time 0.250 h (IV 4 mg/Kg, 0.250 h post dosing, individual mice M1-M3, 4 mg/kg): 10200 ng/mL and 12700 ng/mL
- Plasma concentration, IV Time 0.500 h (IV 4 mg/Kg, 0.500 h post dosing, individual mice M1-M3, 4 mg/kg): 9420 ng/mL and 10500 ng/mL
- Plasma concentration, IV Time 1.00 h (IV 4 mg/Kg, 1.00 h post dosing, individual mice M1-M3, 4 mg/kg): 7730 ng/mL and 8230 ng/mL
- Plasma concentration, IV Time 2.00 h (IV 4 mg/Kg, 2.00 h post dosing, individual mice M1-M3, 4 mg/kg): 6000 ng/mL and 5010 ng/mL
- Plasma concentration, IV Time 4.00 h (IV 4 mg/Kg, 4.00 h post dosing, individual mice M1-M3, 4 mg/kg): 2390 ng/mL and 2130 ng/mL
- Plasma concentration, IV Time 8.00 h (IV 4 mg/Kg, 8.00 h post dosing, individual mice M1-M3, 4 mg/kg): 843 ng/mL and 480 ng/mL
- Plasma concentration, IV Time 24.0 h (IV 4 mg/Kg, 24.0 h post dosing, individual mice M1-M3, 4 mg/kg): 2.33 ng/mL
- Tlast (IV 4 mg/Kg, individual mice M1-M3): 24.0 h
- AUC0-inf [1]: 33.496 µg·h/mL and 30.758 µg·h/mL
- AUC0-last [1]: 33.489 µg·h/mL and 30.751 µg·h/mL
- AUCExtra [1]: 0.0226% and 0.0198% and 0.0224%
- AUMCExtra [1]: 0.219% and 0.187% and 0.251%
- C0 [1]: 22332 ng/mL and 20894 ng/mL
- Cl [1]: 1.99 mL/min/kg and 2.17 mL/min/kg
- MRT0-inf [1]: 2.84 h and 2.41 h
- MRT0-last [1]: 2.83 h and 2.40 h
- T1/2 [1]: 1.97 h and 2.05 h
- Vdss [1]: 0.339 L/kg and 0.313 L/kg
- AUCExtra, Mean IV (IV 4 mg/Kg, mean of 3 mice): 0.0216%
- AUMCExtra, Mean IV (IV 4 mg/Kg, mean of 3 mice): 0.219%
- C0, Mean IV (IV 4 mg/Kg, mean of 3 mice): 21974 ng/mL
- Tlast, Mean IV (IV 4 mg/Kg, mean of 3 mice): 24.0 h
- bioavailability (PO 20 mg/Kg vs IV 4 mg/Kg, Mean PO): 71.0%
- Plasma concentration, PO Time 0.250 h (PO 20 mg/Kg, 0.250 h post dosing, individual mice M4-M6, 20 mg/kg): 21900 ng/mL and 29000 ng/mL and 48900 ng/mL
- Plasma concentration, PO Time 0.500 h (PO 20 mg/Kg, 0.500 h post dosing, individual mice M4-M6, 20 mg/kg): 34100 ng/mL and 35800 ng/mL
- Plasma concentration, PO Time 1.00 h (PO 20 mg/Kg, 1.00 h post dosing, individual mice M4-M6, 20 mg/kg): 33700 ng/mL and 37000 ng/mL
- Plasma concentration, PO Time 2.00 h (PO 20 mg/Kg, 2.00 h post dosing, individual mice M4-M6, 20 mg/kg): 22500 ng/mL and 26200 ng/mL
- Plasma concentration, PO Time 4.00 h (PO 20 mg/Kg, 4.00 h post dosing, individual mice M4-M6, 20 mg/kg): 13000 ng/mL and 10500 ng/mL
- Plasma concentration, PO Time 8.00 h (PO 20 mg/Kg, 8.00 h post dosing, individual mice M4-M6, 20 mg/kg): 2360 ng/mL and 4670 ng/mL
- Plasma concentration, PO Time 24.0 h (PO 20 mg/Kg, 24.0 h post dosing, individual mice M4-M6, 20 mg/kg): 60.7 ng/mL and 17.4 ng/mL and 39.3 ng/mL
- Tlast (PO 20 mg/Kg, individual mice M4-M6): 24.0 h
- AUC0-inf [2]: 123.452 µg·h/mL and 144.868 µg·h/mL
- AUC0-last [2]: 123.399 µg·h/mL and 144.734 µg·h/mL
- AUCExtra [2]: 0.216% and 0.0429% and 0.0929%
- AUMCExtra [2]: 1.40% and 0.376% and 0.730%
- Cmax [2]: 21900 ng/mL and 34100 ng/mL and 48900 ng/mL
- MRT0-last [2]: 3.07 h and 3.47 h
- T1/2 [2]: 2.11 h and 2.37 h
- Tmax [2]: 0.500 h
- AUCExtra, Mean PO (PO 20 mg/Kg, mean of 3 mice): 0.117%
- AUMCExtra, Mean PO (PO 20 mg/Kg, mean of 3 mice): 0.835%
- Tlast, Mean PO (PO 20 mg/Kg, mean of 3 mice): 24.0 h
